Among the test systems are Malme-3M; HCT-15; IGROV-1; RPMI-8226; U-251; MOLT-4; A498; SNB-19; A549; LOX IMVI; COLO 205; NCI-H226; CCRF-CEM; 786-0; SK-MEL-5.
What all share (assay): NCI anticancer screen, dose series, 48 h

These results are taken from ChEMBL document CHEMBL1201862, “PubChem BioAssay data set” (2004).

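Results reflect a 48-hour exposure of cells in 96-well plates to compound at five concentrations. Here, GI50 denotes the concentration required for 50% inhibition of growth.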 Activity calls are given as the source filed them. Rule as the data show it: active = GI50 up to about 1.1 µM and inactive = higher.

For the molecule `CC1CCCc2c(CC3CC(=O)NC(=O)C3)n[nH]c21` (stereo not given), the GI50 is > 100 µM (inactive) in the assay on Malme-3M; over 100 µM in the assay with HCT-15; > 100 µM (inactive) in the assay on IGROV-1; > 100 µM (inactive) in the assay with RPMI-8226; > 100 µM (inactive) with U-251; > 100 µM (inactive) in the assay on MOLT-4. Besides, the GI50 in the assay on A498, in the assay with SNB-19, in the assay with A549, in the assay with LOX IMVI, with COLO 205 and in the assay on NCI-H226 was > 100 µM (inactive) in each case. Besides, the GI50 in the assay with CCRF-CEM and in the assay on 786-0 was > 100 µM (inactive) throughout.
As to `CC(C)(C)c1cc(C2c3cc4c(cc3OC(O)(CO)C2C(=O)O)OCO4)cc(C(C)(C)C)c1O.CC(C)(C)c1cc(C2c3cc4c(cc3OC3(O)COC(=O)C23)OCO4)cc(C(C)(C)C)c1O` (stereo not given), the GI50 is 16.6 µM (inactive) in the assay on Malme-3M; 8.2 µM in the assay on HCT-15; 16.4 µM (inactive) with IGROV-1; 4.37 µM (inactive) in the assay on RPMI-8226; 14.5 µM (inactive) in the assay with U-251; 3.52 µM (inactive) in the assay with MOLT-4. Besides, the GI50 is 12.9 µM (inactive) with SNB-19; 18.7 µM (inactive) with A549; 12.2 µM (inactive) in the assay on LOX IMVI; 9.48 µM (inactive) in the assay on SK-MEL-5; 20.4 µM (inactive) in the assay with COLO 205; 3.58 µM (inactive) in the assay on CCRF-CEM. For the same molecule, in the assay with 786-0, the GI50 is 16.6 µM (inactive).
As for `COc1cc(Nc2nc3cc(C(F)(F)F)ccc3nc2C)cc(OC)c1OC`, the GI50 in the assay with Malme-3M was 13.6 µM (inactive); with HCT-15, 3.32 µM; with IGROV-1, 13.6 µM (inactive); in the assay on U-251, 9.95 µM (inactive); in the assay with MOLT-4 it was 6.95 µM (inactive); in the assay with A498, 3.81 µM (inactive). Further, the GI50 with A549 was > 10 µM (inactive); in the assay with LOX IMVI, 3.13 µM (inactive); in the assay with SK-MEL-5, 9.79 µM (inactive); with COLO 205 it was 12.1 µM (inactive); with NCI-H226 it was 5.14 µM (inactive); with CCRF-CEM, 5.74 µM (inactive). Besides, the GI50 in the assay with 786-0 was 12.2 µM (inactive).
As for `Cc1oc2c(C)c3oc(=O)cc(C)c3cc2c1CN`, the GI50 in the assay with Malme-3M was 25.2 µM (inactive); in the assay on HCT-15 it was 36.9 µM; in the assay with RPMI-8226 it was 39.4 µM (inactive); with U-251 it was 23 µM (inactive); in the assay with MOLT-4, 24.7 µM (inactive); in the assay on A498, 41.5 µM (inactive). Moreover, the GI50 is 41.5 µM (inactive) in the assay on SNB-19; 40.3 µM (inactive) in the assay with A549; 16.2 µM (inactive) in the assay on LOX IMVI; 33.1 µM (inactive) in the assay with COLO 205; 34.4 µM (inactive) with NCI-H226; 41.9 µM (inactive) in the assay with CCRF-CEM. In addition, the GI50 with 786-0 was 39.9 µM (inactive).
For `O=C1C(=O)N(C(=O)c2ccc(Cl)c(Cl)c2)c2ccc(Cl)cc21`, the GI50 in the assay on IGROV-1 is > 100 µM (inactive); in the assay with RPMI-8226 it was 35.6 µM (inactive); in the assay with U-251, > 100 µM (inactive); in the assay with MOLT-4 it was 43.9 µM (inactive); in the assay on A498, 19.4 µM (inactive); with SNB-19 it was > 100 µM (inactive). Further, the GI50 was > 100 µM (inactive) in the assay on A549; 44.9 µM (inactive) in the assay on LOX IMVI; > 100 µM (inactive) in the assay on SK-MEL-5; > 100 µM (inactive) with COLO 205; > 100 µM (inactive) with NCI-H226; 38.8 µM (inactive) with CCRF-CEM. In addition, in the assay with 786-0, the GI50 was > 100 µM (inactive).
On to `COC(=O)c1c(C)cc2c(c1O)C1(O)C(=O)c3cc4c(c(O)c3C(=O)C1(OC)C(O)C2)C(=O)C=C(NC1OC(C)C(OC)C(O)C1OC)C4=O` (stereo not given), for which the GI50 in the assay on Malme-3M is 0.0538 µM (active); in the assay on HCT-15, 0.106 µM; in the assay with IGROV-1, 0.0134 µM (active); in the assay with RPMI-8226 it was 0.0157 µM (active); in the assay with U-251, 0.207 µM (active); in the assay on MOLT-4 it was 0.0208 µM (active). The GI50 in the assay on A498 was 0.259 µM (active); in the assay on SNB-19, 0.159 µM (active); in the assay on A549 it was 0.0619 µM (active); in the assay on LOX IMVI it was 0.0342 µM (active); in the assay on COLO 205, 0.0532 µM (active); in the assay with NCI-H226, 0.189 µM (active). Also, the GI50 was 0.0189 µM (active) in the assay with CCRF-CEM and 0.0753 µM (active) in the assay with 786-0.
For the molecule `O=C(c1ccco1)N(C(=S)N1CCN(c2ccccc2)CC1)C1CCCCC1`, the GI50 is > 100 µM (inactive) in the assay with Malme-3M; 94.6 µM in the assay with HCT-15; > 100 µM (inactive) in the assay on IGROV-1; > 100 µM (inactive) with RPMI-8226; > 100 µM (inactive) in the assay on U-251; > 100 µM (inactive) in the assay on MOLT-4. For the same molecule, the GI50 in the assay with SNB-19 is > 100 µM (inactive); with A549, 67.1 µM (inactive); in the assay with LOX IMVI, 57.3 µM (inactive); with SK-MEL-5, 56.4 µM (inactive); in the assay on COLO 205, 45 µM (inactive); in the assay on CCRF-CEM, > 100 µM (inactive). The GI50 with 786-0 was > 100 µM (inactive).
As to `COc1cc(-c2ccccc2)c(OC)cc1CCl`, the GI50 is > 100 µM (inactive) in the assay on Malme-3M; over 100 µM in the assay with HCT-15; > 100 µM (inactive) in the assay with IGROV-1; > 100 µM (inactive) in the assay on RPMI-8226; > 100 µM (inactive) in the assay with U-251; > 100 µM (inactive) in the assay with MOLT-4. The GI50 in the assay on A498, with SNB-19, with A549, in the assay on SK-MEL-5, in the assay on COLO 205 and in the assay with NCI-H226 was > 100 µM (inactive) throughout. The GI50 with CCRF-CEM and in the assay on 786-0 was > 100 µM (inactive) in each case.
Regarding `OC(CC1SCCCS1)c1ccccc1` (stereo not given), the GI50 is > 100 µM (inactive) with Malme-3M; over 100 µM in the assay on HCT-15; > 100 µM (inactive) with IGROV-1; > 100 µM (inactive) with RPMI-8226; > 100 µM (inactive) with U-251; > 100 µM (inactive) in the assay with MOLT-4. Besides, the GI50 in the assay on A498, in the assay on SNB-19, in the assay with A549, in the assay with SK-MEL-5, with COLO 205 and with NCI-H226 was > 100 µM (inactive) in each case. Besides, the GI50 in the assay on CCRF-CEM and with 786-0 was > 100 µM (inactive) in each case.
On to `[N-]=[N+]=NC1(Cc2ccccc2)C(=O)Nc2ccccc2C1=O` (stereo not given), for which the GI50 in the assay on Malme-3M was > 100 µM (inactive); with HCT-15, over 100 µM; with IGROV-1 it was 88.7 µM (inactive); in the assay with U-251, > 100 µM (inactive); with MOLT-4, > 100 µM (inactive); in the assay with A498 it was > 100 µM (inactive). Further, the GI50 with SNB-19, with A549, with LOX IMVI, in the assay on SK-MEL-5, in the assay with COLO 205 and in the assay with CCRF-CEM was > 100 µM (inactive) each time. For the same molecule, the GI50 in the assay on 786-0 is > 100 µM (inactive).
Take `O=[PH](O)c1cc2ccccc2c2ccccc12`: the GI50 with IGROV-1, in the assay with RPMI-8226, with U-251, in the assay on MOLT-4, with SNB-19 and with A549 was > 100 µM (inactive) in each case. Further, the GI50 in the assay with LOX IMVI, in the assay with SK-MEL-5, with COLO 205, with NCI-H226, in the assay on CCRF-CEM and in the assay on 786-0 was > 100 µM (inactive) throughout.
Turning to `CC(=O)OC(CC1(C)C(C)CCC23COC(=O)C2=CCCC31)c1ccoc1` (stereo not given), the GI50 is 21.8 µM (inactive) with Malme-3M; 20.4 µM with HCT-15; 15.8 µM (inactive) in the assay on U-251; 19.5 µM (inactive) in the assay on MOLT-4; 45.3 µM (inactive) with A498; 25.4 µM (inactive) with SNB-19. For the same molecule, the GI50 in the assay with A549 was 31.6 µM (inactive); with LOX IMVI, 21.3 µM (inactive); in the assay on SK-MEL-5, 19.5 µM (inactive); in the assay on COLO 205, 40.4 µM (inactive); in the assay with NCI-H226, 16.7 µM (inactive); with CCRF-CEM it was 20.2 µM (inactive). Further, in the assay with 786-0, the GI50 was 17.1 µM (inactive).
For `C=C1C2CC(OC(C)=O)C3(C)C(c4ccoc4)OC(=O)[C@@H](O)[C@]13OC1C[C@H](OC(C)=O)C(C)(C)[C@H](CC(=O)OC)[C@]12C` (stereo not given in full), the GI50 in the assay on HCT-15 was over 100 µM; with IGROV-1, > 100 µM (inactive); with RPMI-8226 it was > 100 µM (inactive); in the assay on U-251, > 100 µM (inactive); in the assay on MOLT-4, 70.6 µM (inactive); in the assay on A498, > 100 µM (inactive). In addition, the GI50 in the assay with SNB-19, with A549, in the assay with LOX IMVI, in the assay on SK-MEL-5, with COLO 205 and in the assay with NCI-H226 was > 100 µM (inactive) each time. Moreover, the GI50 in the assay with CCRF-CEM and in the assay on 786-0 was > 100 µM (inactive) in each case.
For `N#C/C(=C\c1ccc(O)c(O)c1)C(N)=O`, the GI50 in the assay with Malme-3M was 50.6 µM (inactive); in the assay with HCT-15, 50.6 µM; with IGROV-1 it was 76.4 µM (inactive); in the assay with RPMI-8226 it was 15.5 µM (inactive); with U-251, 33.9 µM (inactive); in the assay with MOLT-4 it was 12.5 µM (inactive). In addition, the GI50 in the assay with A498 is > 100 µM (inactive); with SNB-19 it was 38.5 µM (inactive); with A549, 46.2 µM (inactive); in the assay with COLO 205, 58.1 µM (inactive); in the assay with NCI-H226, 37 µM (inactive); with CCRF-CEM, 5.78 µM (inactive). Besides, the GI50 with 786-0 is 20.6 µM (inactive).
Turning to `C#C[C@]1(O)CC[C@H]2[C@@H]3CCc4cc(O)ccc4[C@H]3CC[C@@]21C` [ETHINYL ESTRADIOL], the GI50 with Malme-3M was 30.5 µM (inactive); with HCT-15 it was 15.4 µM; with IGROV-1 it was 55.5 µM (inactive); in the assay on U-251 it was 7.8 µM (inactive); with MOLT-4 it was 18.6 µM (inactive); in the assay with A498, 20.1 µM (inactive). The GI50 in the assay with SNB-19 is 68.5 µM (inactive); with A549, 29.1 µM (inactive); with LOX IMVI, 25.2 µM (inactive); in the assay with SK-MEL-5, 11.1 µM (inactive); in the assay on COLO 205 it was 31.3 µM (inactive); in the assay with NCI-H226 it was 20.3 µM (inactive). For the same molecule, the GI50 with CCRF-CEM was 23.1 µM (inactive); with 786-0, 34.6 µM (inactive).
